# Measured values taken from ChEMBL document CHEMBL1201862, “PubChem BioAssay data set” (2004).
# Activity calls are given as the source filed them.
# Legend:
# Beta-galactosidase = Beta-galactosidase (Escherichia coli, UniProt Q8VNN2); test: Dose response counterscreen for EBI2 assay utilizing the enzyme, b-galactosidase.; type: functional
# [1] = biological target: T1, Nuclear receptor subfamily 0 group B member 1 (Homo sapiens, UniProt P51843); type: functional, cell-based;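 also: HEK293T cells transfected with SF-1 and DAX-1 plus StAR promoter luciferase reporter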
# T1 sequence (P51843 whole entry): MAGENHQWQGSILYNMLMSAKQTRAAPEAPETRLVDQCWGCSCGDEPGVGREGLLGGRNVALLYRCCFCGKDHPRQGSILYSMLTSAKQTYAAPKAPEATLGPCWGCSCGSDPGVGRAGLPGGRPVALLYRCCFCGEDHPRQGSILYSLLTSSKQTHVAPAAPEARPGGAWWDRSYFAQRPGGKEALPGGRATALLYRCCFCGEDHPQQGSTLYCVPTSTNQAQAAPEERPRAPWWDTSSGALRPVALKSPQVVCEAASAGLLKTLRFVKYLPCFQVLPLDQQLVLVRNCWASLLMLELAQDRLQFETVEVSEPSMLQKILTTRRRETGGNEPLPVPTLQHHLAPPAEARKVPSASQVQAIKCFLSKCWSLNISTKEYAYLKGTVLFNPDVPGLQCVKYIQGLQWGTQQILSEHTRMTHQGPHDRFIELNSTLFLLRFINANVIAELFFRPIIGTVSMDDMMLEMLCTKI
# cells [2] = type: functional, cell-based
# cells [3] = test: cells
# Major prion protein = Major prion protein (Homo sapiens, UniProt P04156); type: functional, cell-based
# [4] = human group III sPLA2 inhibitors, dose response, biochemical, QFRET, IC50 (AID 743457);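 also: green fluorescence rise as the enzyme cleaves BODIPY PC-A2 in liposomes; potency for inhibition of the enzyme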
# Streptococcus = test: Group A Streptococcus viability loss, dose response, counter-screen for streptokinase expression inhibitor project, luminescence, BacTiterGlo (AID 1915); type: functional, organism-based;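 also: potency for reduction of bacterial viability or growth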
# [5] = tested on: Streptococcus sp. 'group A'; test: growth inhibition of control SK(-) GAS strain, dose response, counter-screen for streptokinase expression inhibitor project, luminescence, kanamycin, BacTiterGlo, confirmation (AID 1900); type: functional, organism-based
# [6] = biological target: T2, Heat shock factor protein 1 (Mus musculus, UniProt P38532); test: inhibition of MG132-induced HSE-luciferase signal, confirmation, cell-based, NIH3T3, luminescence, dose retest (AID 2382); type: functional;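 also: NIH3T3 fibroblasts with HSF1-driven luciferase reporter stressed by proteasome inhibitor MG132; luminescence from HSF1-driven luciferase expression after 8 hours of MG132 stress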
# T2 sequence (P38532 whole entry): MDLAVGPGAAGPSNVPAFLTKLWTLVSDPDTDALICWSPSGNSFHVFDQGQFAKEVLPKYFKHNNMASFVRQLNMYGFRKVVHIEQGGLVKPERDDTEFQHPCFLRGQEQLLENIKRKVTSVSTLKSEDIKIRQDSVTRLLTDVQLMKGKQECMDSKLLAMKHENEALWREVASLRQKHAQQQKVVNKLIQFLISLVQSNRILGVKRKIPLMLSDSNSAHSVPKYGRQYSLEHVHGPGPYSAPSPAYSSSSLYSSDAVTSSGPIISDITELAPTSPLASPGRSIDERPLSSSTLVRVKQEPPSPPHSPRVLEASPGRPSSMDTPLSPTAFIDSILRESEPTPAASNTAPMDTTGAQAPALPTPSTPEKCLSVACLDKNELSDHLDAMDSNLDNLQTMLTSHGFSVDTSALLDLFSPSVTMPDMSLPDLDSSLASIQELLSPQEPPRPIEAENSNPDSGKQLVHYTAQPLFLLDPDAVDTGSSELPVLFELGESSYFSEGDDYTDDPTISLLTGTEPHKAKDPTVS
# [7] = miR-122 activators in hepatoma reporter cells, dose response, cell-based, Huh7 psiCHECK-miR122, Renilla luciferase, cherry-picked (AID 651956); type: functional;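 also: huh7 hepatoma cells stably carrying a psiCHECK-2 miR-122 sensor plasmid; renilla luciferase signal reporting endogenous miR-122 activity after 48 h compound exposure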
# [8] = biological target: T3, Small ubiquitin-related modifier 1 (Homo sapiens, UniProt P63165); test: inhibitors of SUMO1 peptide binding, dose response, biochemical, fluorescence polarization, uHTS hits (AID 624382); type: functional; conditions: read-out: IC50_Mean
# [9] = biological target: T3, Small ubiquitin-related modifier 1; test: inhibitors of SUMO1 partner interactions, dose response, biochemical, FRET (AID 624383); type: functional; conditions: read-out: IC50_Mean
# [10] = biological target: T4, Trace amine-associated receptor 1 (Homo sapiens, UniProt Q96RJ0); test: Counterscreen for agonists of the human trace amine associated receptor 1 (hTAAR1): Fluorescence-based cell-based high throughput dose response assay to identify hTAAR1 agonist that also desensitize TAAR1 receptor response.; type: functional
# T4 sequence (Q96RJ0 whole entry): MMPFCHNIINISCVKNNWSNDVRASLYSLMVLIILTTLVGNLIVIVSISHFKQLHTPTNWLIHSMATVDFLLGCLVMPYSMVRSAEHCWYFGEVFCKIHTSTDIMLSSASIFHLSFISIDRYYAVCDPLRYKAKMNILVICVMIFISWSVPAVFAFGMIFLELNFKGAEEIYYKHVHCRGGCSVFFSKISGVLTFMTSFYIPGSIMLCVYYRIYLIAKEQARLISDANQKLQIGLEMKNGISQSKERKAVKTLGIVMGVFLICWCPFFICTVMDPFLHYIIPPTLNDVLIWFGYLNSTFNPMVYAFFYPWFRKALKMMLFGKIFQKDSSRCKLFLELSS
# cells [11] = type: functional, cell-based; remark: listed apart in the source
# cells [12] = type: functional, cell-based; remark: listed apart in the source
# [13] = biological target: T4, Trace amine-associated receptor 1; test: Fluorescence-based cell-based high throughput dose response assay to identify agonists of the human trace amine associated receptor 1 (TAAR1).; type: functional
# Estrogen receptor beta = Estrogen receptor beta (Homo sapiens, UniProt Q92731);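 also: recombinant ER-beta bound to coactivator SRC1 peptide in presence of estradiol agonist; inhibitors block coactivator peptide binding and lower the FRET signal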
# [14] = P. falciparum Dd2 growth inhibitors, dose response, SYBR Green, cherry-picked samples (AID 1159567); type: functional, cell-based
# [15] = HepG2 cell cytotoxicity, dose response, cytotoxicity control, cherry-picked samples (AID 1159577); type: functional, cell-based
# [16] = inhibitors of HIV Env-driven cell fusion, dose response, cherry-pick (AID 652057); type: functional, cell-based
# [17] = ZM109 Env clade C HIV-1 fusion inhibitors, dose response, HeLa effector, CEM target cells, luciferase, cherry-pick (AID 652058); type: functional, cell-based
# [18] = inhibitors of clade B AD8 Env fusion, dose response, cell-based, cherry-pick (AID 652062); type: functional;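 also: luciferase signal from cell-cell fusion driven by HIV-1 clade B AD8 Env; potency is for inhibitors of fusion seen as a drop in luminescence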
# [19] = off-target signal loss in HeLa-CEM21 co-culture – HeLa F-luc CTL cells, cherry-picked, counter-screen for HIV-1 Env fusion inhibitor project, dose response (AID 652040); type: functional, cell-based;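 also: potency for signal decrease marking cytotoxic or nonspecific inhibition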
# [20] = cytotoxicity in HEK-293T cells, dose response, cytotoxicity control for TCR NF-kB inhibitor project, luminescence, T-cell screen hits (AID 489026); type: functional, cell-based;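 also: cells exposed to compound about 14 hours before the viability readout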
# [21] = biological target: T5, COUP transcription factor 2 (Homo sapiens, UniProt P24468); test: Luminescence-based cell-based high throughput dose response assay to identify inhibitors of COUP-TFII (NR2F2).; type: functional;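 also: HEK293 cells transiently cotransfected with COUP-TFII expression vector and reporter; luciferase reporter luminescence driven by COUP-TFII from the pX2-168 reporter plasmid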
# T5 sequence (P24468 whole entry): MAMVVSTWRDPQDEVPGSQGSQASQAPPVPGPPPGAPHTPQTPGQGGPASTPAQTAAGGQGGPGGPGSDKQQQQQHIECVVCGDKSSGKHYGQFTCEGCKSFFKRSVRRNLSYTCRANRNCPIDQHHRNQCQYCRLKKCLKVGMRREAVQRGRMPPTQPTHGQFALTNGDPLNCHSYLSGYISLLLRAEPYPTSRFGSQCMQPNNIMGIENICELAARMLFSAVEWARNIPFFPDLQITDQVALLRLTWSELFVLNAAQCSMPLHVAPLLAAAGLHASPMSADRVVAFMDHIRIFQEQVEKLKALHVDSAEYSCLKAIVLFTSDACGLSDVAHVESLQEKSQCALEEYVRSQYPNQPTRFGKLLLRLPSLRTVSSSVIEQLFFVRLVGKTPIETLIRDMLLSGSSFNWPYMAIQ
# [22] = HeLa 4N DNA content increase, dose response, cell-based, IC50 (AID 1117351); type: functional
# [23] = HepG2 cell cytotoxicity, dose response, cytotoxicity control, ATP luminescence, cherry-pick, activator set 2 (AID 1053143); type: functional, cell-based
# [24] = biological target: T6, Fructose-bisphosphate aldolase (Mycobacterium tuberculosis, UniProt P9WQA3); test: Fluorescence-based biochemical high throughput dose response assay for inhibitors of the fructose-bisphosphate aldolase (FBA) of M. tuberculosis.; type: functional
# T6 sequence (P9WQA3 whole entry): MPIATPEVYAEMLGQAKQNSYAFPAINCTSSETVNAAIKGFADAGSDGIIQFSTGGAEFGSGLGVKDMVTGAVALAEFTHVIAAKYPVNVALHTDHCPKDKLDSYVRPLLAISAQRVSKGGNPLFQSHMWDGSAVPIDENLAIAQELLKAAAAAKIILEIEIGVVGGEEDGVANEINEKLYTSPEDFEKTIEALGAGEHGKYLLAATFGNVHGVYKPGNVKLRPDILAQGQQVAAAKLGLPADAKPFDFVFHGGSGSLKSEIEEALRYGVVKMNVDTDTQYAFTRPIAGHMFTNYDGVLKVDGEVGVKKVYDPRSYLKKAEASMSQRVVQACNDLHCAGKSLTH
smiles,measurement,setting,value
O=C1CC2(CCN(C(=O)COc3ccc(Cl)cc3)CC2)Oc2ccccc21,IC50,Beta-galactosidase,> 80 µM (inactive)
Cc1ccsc1C1Nc2ccc3ncccc3c2C2=C1C(=O)CC(C)(C)C2 (centres undefined),IC50,Beta-galactosidase,> 80 µM (inactive)
CN(C)CCN(C(=O)c1ccc2c(c1)CCCC2)c1nc2cc3c(cc2s1)OCCO3,IC50,[1],> 67.5 µM (inactive)
same,IC50,cells [2],> 67.5 µM (inactive)
COc1cc(C(=O)Nc2scc(-c3ccc(C)cc3)c2C(=O)O)cc(OC)c1OC,IC50,cells [3],> 138 µM (inactive)
same,IC50,Major prion protein,4.4 µM (active)
Cc1cc(C)n2nc(C(=O)Nc3ccc4c(c3)OCCO4)nc2n1,IC50,[1],> 67.5 µM (inactive)
same,IC50,cells [2],> 67.5 µM (inactive)
COc1ccc(C(=O)NC(=S)NNC(=O)c2ccco2)cc1,IC50,[4],> 122 µM (inactive)
same,EC50,Streptococcus,17.3 µM (active)
same,EC50,[5],6.65 µM (active)
same,EC50,[6],> 195 µM (not active)
CN(c1ccccc1)S(=O)(=O)c1ccc(C(=O)Nc2cccc(S(=O)(=O)N3CCOCC3)c2)cc1,AC50,[7],59.3 µM (active)
CC1=CC(C)(C)N=C(S)N1c1cccc2ccccc12,IC50,[4],> 122 µM (inactive)
C=C(C)C(=O)Nc1ccc2c(c1)OCCOCCOCCO2,IC50,[8],> 66.6 µM (inactive)
same,IC50,[9],1.74 µM (active)
COc1cccc(C(=O)N[C@H](C(=O)N2CCC[C@H]2C(=O)NCCc2ccccc2Cl)c2ccccc2)c1,IC50,[10],7.36 µM (active)
same,IC50,cells [11],> 29.9 µM (inactive)
same,EC50,cells [12],> 29.9 µM (inactive)
same,EC50,[13],6.46 µM (active)
CC(=O)N1c2ccc(S(=O)(=O)N3CCCC(C(=O)Nc4cc(C)cc(C)c4)C3)cc2CC1C (centres undefined),IC50,cells [3],> 138 µM (inactive)
same,IC50,Major prion protein,10.4 µM (inactive)
c1ccc(CN(CC2=NCCN2)c2ccccc2)cc1 [ANTAZOLINE PHOSPHATE],IC50,[10],> 29.9 µM (inactive)
same,IC50,cells [11],> 29.9 µM (inactive)
same,EC50,cells [12],> 29.9 µM (inactive)
same,EC50,[13],> 9.97 µM (active)
CCOC(=O)c1cccc(NC(=O)c2cccs2)c1,IC50,Estrogen receptor beta,> 50 µM (not active)
CSc1ccc(CN2CCN(C(=O)COc3ccc(C)cc3)CC2)cc1,IC50,Beta-galactosidase,> 80 µM (inactive)
CCCNC(=O)N1CC2(CCN(S(=O)(=O)c3ccc(OC)cc3)CC2)c2c(n(C)c3cc(OC)ccc23)[C@@H]1CO,AC50,[14],3.11 µM (active)
same,AC50,[15],> 39 µM (inactive)
CC[C@@]12C(=O)N(c3cccc(Br)c3)C(=O)N1[C@H](c1ccc(OC)cc1)[C@@H]1C(=O)N(C(C)(C)C)C(=O)[C@@H]12,AC50,[16],0.326 µM (active)
same,AC50,[17],0.581 µM (active)
same,AC50,[18],0.627 µM (active)
same,AC50,[19],0.509 µM (active)
Cc1cc(-n2c(C)cc(C(=O)CSc3ncnc4ccccc34)c2C)no1,IC50,[20],> 80 µM (inactive)
same,IC50,[21],6.08 µM (active)
O=C(NCC1(N2CCCCC2)CCCCC1)c1cccc(S(=O)(=O)Nc2ccc(F)cc2)c1,IC50,[1],> 67.5 µM (inactive)
same,IC50,cells [2],> 67.5 µM (inactive)
N#C[C@@H]1[C@H](c2ccc(C#CCC3CCCC3)cc2)[C@H](CO)N1C(=O)c1ccccn1,AC50,[14],3.37 µM (active)
same,AC50,[15],26 µM (active)
CC[C@@]1(O)C(=O)OCc2c1cc1n(c2=O)Cc2c-1nc1ccccc1c2/C=N/OC(C)(C)C,IC50,[22],> 10 µM (inactive)
COc1ccc([C@@H]2[C@@H]3C(=O)N(C(C)(C)C)C(=O)[C@@H]3[C@]3(CC(C)C)C(=O)N(c4ccccc4)C(=O)N23)cc1,AC50,[16],0.737 µM (active)
same,AC50,[17],1.13 µM (active)
same,AC50,[18],1.88 µM (active)
same,AC50,[19],0.732 µM (active)
COc1ccc(C(=O)COc2ccc(C)cc2NC(C)=O)cc1,AC50,[23],> 52 µM (inactive)
O=S(=O)(O)c1nc2ccccc2n1Cc1ccccc1,IC50,Estrogen receptor beta,> 50 µM (not active)
N#Cc1nc(-c2cccs2)oc1N1CCN(Cc2ccccc2)CC1,IC50,[24],0.849 µM (active)
C(=C\c1ccco1)/c1nc2ccccc2[nH]1,AC50,[23],26 µM (active)
CCOc1ccc2oc(C(=O)OCC(=O)NC3CCCC3)c(C)c2c1,IC50,[24],2.59 µM (active)
O=C(CCN1CCCC1Cc1ccccc1)c1ccc2c(c1)OCCO2 (centres undefined),IC50,[10],> 9.97 µM (active)
same,IC50,cells [11],> 29.9 µM (inactive)
same,EC50,cells [12],> 29.9 µM (inactive)
same,EC50,[13],0.3 µM (active)
